The values below come from patent US20220280476A1, “KCNT1 INHIBITORS AND METHODS OF USE” (Praxis Precision Medicines, Inc., priority 2019, published 2022).

A value given as a limit tells only on which side of the number the result lay.

The IC50 is the concentration that gives 50% inhibition.

The target in the experiment is T1, KCNT1 (KNa1.1, Slack) (Homo sapiens, UniProt Q5JUK3).
T1 construct: expressed in transfected cells; host or cells: HEK-TREX (tetracycline-inducible HEK cell line)
T1 sequence (Q5JUK3 1-1230): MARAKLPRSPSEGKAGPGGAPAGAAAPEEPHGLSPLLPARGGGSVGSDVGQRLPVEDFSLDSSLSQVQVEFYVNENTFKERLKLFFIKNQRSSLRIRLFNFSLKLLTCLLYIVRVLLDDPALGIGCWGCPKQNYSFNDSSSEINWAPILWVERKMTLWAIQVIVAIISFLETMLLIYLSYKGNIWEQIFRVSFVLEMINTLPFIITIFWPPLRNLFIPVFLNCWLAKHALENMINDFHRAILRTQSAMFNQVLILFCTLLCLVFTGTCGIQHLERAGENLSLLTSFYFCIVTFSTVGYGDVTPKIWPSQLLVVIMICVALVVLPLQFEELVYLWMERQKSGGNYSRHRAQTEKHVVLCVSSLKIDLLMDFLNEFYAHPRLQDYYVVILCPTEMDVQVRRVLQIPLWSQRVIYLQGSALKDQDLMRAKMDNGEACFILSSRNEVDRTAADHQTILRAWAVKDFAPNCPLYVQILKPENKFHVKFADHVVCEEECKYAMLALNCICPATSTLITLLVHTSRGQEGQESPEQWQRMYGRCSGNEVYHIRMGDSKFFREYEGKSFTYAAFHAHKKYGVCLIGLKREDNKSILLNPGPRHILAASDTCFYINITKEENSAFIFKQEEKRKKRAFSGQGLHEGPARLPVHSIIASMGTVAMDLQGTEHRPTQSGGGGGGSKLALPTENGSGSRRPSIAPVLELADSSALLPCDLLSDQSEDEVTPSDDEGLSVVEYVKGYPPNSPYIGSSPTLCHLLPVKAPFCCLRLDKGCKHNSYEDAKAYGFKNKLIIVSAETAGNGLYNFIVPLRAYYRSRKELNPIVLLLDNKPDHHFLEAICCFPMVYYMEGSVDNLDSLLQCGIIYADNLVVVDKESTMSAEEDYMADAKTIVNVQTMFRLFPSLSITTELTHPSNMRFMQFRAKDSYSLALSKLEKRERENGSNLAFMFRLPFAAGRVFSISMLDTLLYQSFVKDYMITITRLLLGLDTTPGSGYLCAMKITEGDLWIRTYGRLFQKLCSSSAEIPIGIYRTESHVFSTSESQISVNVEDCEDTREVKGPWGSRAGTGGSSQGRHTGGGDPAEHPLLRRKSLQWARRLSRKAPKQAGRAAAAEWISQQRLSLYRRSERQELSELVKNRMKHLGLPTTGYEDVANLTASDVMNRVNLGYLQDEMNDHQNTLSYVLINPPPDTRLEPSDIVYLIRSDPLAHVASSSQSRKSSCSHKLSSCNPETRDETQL
As to the kind of experiment: KCNT1-WT-Basal patch clamp assay (SyncroPatch 384PE, HEK-TREX inducible cell line). The note with it: tetracycline inducible HEK-TREX cells; perforated patch; holding -80 mV, 100 ms step to 0 mV; room temperature; read-out: KCNT1 WB IC50. The class given is cell-based. As to the method: KCNT1-WT-Basal—Patch Clamp Assay
Inhibition of KCNT1 (KNa1.1, Slack) was evaluated using a tetracycline inducible cell line (HEK-TREX). Currents were recorded using the SyncroPatch 384PE automated, patch clamp system. Pulse generation and data collection were performed with PatchController384 V1.3.0 and DataController384 V1.2.1 (Nanion Technologies). The access resistance and apparent membrane capacitance were estimated using built-in protocols. Current were recorded in perforated patch mode (10 μM escin) from a population of cells. The cells were lifted, triturated, and resuspended at 800,000 cells/ml. The cells were allowed to recover in the cell hotel prior to experimentation. Currents were recorded at room temperature. The external solution contained the following (in mM): NaCl 105, NMDG 40, KCl 4, MgCl2 1, CaCl2 5 and HEPES 10 (pH=7.4, Osmolarity ˜300 mOsm). The extracellular solution was used as the wash, reference and compound delivery solution. The internal solution contained the following (in mM): NaCl 70, KF 70, KCl 10, EGTA 5, HEPES 5 and Escin 0.01 (pH=7.2, Osmolarity ˜295 mOsm). Escin is made at a 5 mM stock in water, aliquoted, and stored at −20° C. The compound plate was created at 2× concentrated in the extracellular solution. The compound was diluted to 1:2 when added to the recording well. The amount of DMSO in the extracellular solution was held constant at the level used for the highest tested concentration. A holding potential of −80 mV with a 100 ms step to 0 mV was used. Mean current was measured during the step to 0 mV. […] The average mean current from 3 sweeps was calculated and the % inhibition of each compound was calculated. The % Inhibition as a function of the compound concentration was fit with a Hill equation to derive IC50, slope, min and max parameters. If KCNT1 inhibition was less than 50% at the highest tested concentration or if an IC50 could not be calculated, then a percent inhibition was reported in place of the IC50.
(Patch clamp records ionic current or voltage across a cell membrane.)
For `CS(=O)(=O)c1ccc(C(=O)N[C@@H]2CCc3cc(Cl)ccc32)cc1F` [Compound II-35], the IC50 is not above 1000 nM. `Cc1cccc(O)c1C(=O)N[C@@H]1CCc2cc(Cl)ccc21` [Compound III-17]: the half-maximal inhibitory concentration (IC50) is not below 20000 nM. `CN(C)Cc1ccc(C(=O)N[C@@H]2CCc3cc(Cl)ccc32)s1` [Compound I-38]: the IC50 is 1000 to 20000 nM. Consider `NC(=O)c1ccc(C(=O)N[C@@H]2CCc3cc(Cl)ccc32)cc1` [Compound II-26], for which the half-maximal inhibitory concentration (IC50) lay within 1000 to 20000 nM.

Regarding `Cn1nc(C(F)(F)F)cc1C(=O)N[C@@H]1CCc2cc(Cl)ccc21` [Compound I-26], the half-maximal inhibitory concentration (IC50) was not above 1000 nM.

With `NS(=O)(=O)c1ccc(C(=O)N[C@@H]2CCc3cc(Cl)ccc32)cc1` [Compound II-25], the IC50 was not above 1000 nM. Turning to `Cc1cc(S(C)(=O)=O)ccc1C(=O)N[C@@H]1CCc2cc(Cl)ccc21` [Compound II-33], the IC50 was not below 20000 nM. As for `O=C(N[C@@H]1CCc2cc(Cl)ccc21)c1ccccc1O` [Compound III-3], the IC50 was not above 1000 nM. Take `O=C(N[C@@H]1CCc2cc(Cl)ccc21)c1ccc(NS(=O)(=O)C2CC2)cc1` [Compound II-11, N-[(1R)-5-chloroindan-1-yl]-4-(cyclopropylsulfonylamino)benzamide]: the IC50 lay in the range of 1000 to 20000 nM.

With `Cn1nc(C2CC2)cc1C(=O)N[C@@H]1CCc2cc(Cl)ccc21` [Compound I-2], the half-inhibitory concentration (IC50) fell in the range of 1000 to 20000 nM.

In the case of `CN1CCN(S(=O)(=O)c2ccc(C(=O)N[C@@H]3CCc4cc(Cl)ccc43)s2)CC1` [Compound I-42], the IC50 is not above 1000 nM. Then `Cn1nc(C(=O)N[C@@H]2CCc3cc(Cl)ccc32)cc1C1CC1` [Compound I-1], with 1000 to 20000 nM. As for `NS(=O)(=O)c1ccc(C(=O)N[C@@H]2CCc3cc(Cl)ccc32)o1` [Compound I-3], the concentration for half-maximal inhibition (IC50) lay in the range of 1000 to 20000 nM. With `CS(=O)(=O)Nc1ccc(C(=O)N[C@@H]2CCc3cc(Cl)ccc32)cc1` [Compound II-4, N-[(1R)-5-chloroindan-1-yl]-4-(methanesulfonamido)benzamide] the figure was not above 1000 nM; with `CNS(=O)(=O)Nc1ccc(C(=O)N[C@@H]2CCc3cc(Cl)ccc32)cc1` [Compound II-32], not above 1000 nM. As to `NS(=O)(=O)Nc1ccc(C(=O)N[C@@H]2CCc3cc(Cl)ccc32)cc1` [Compound II-37], the IC50 was 1000 to 20000 nM. For the compound `COc1ccc(C(=O)NC2CCc3cc(Cl)ccc32)cc1` (single isomer, unassigned) [Compound II-8, N-(5-chloroindan-1-yl)-4-methoxy-benzamide], the IC50 was 1000 to 20000 nM.

For `CS(=O)(=O)Nc1ccc(C(=O)NC2CCc3cc(C(F)(F)F)ccc32)cc1` (single isomer, unassigned) [Compound II-58, 4-(methanesulfonamido)-N-[5-(trifluoromethyl)indan-1-yl]benzamide], the IC50 is more than 20000 nM. As to `O=C(N[C@@H]1CCc2cc(Cl)ccc21)c1cccc(F)c1O` [Compound III-9], the IC50 is not above 1000 nM. Regarding `CS(=O)(=O)Nc1ccc(C(=O)NC2CCCc3cc(Cl)ccc32)cc1` (single isomer, unassigned) [Compound II-53, N-(6-chlorotetralin-1-yl)-4-(methanesulfonamido)benzamide], the IC50 was not above 1000 nM. On to `CCS(=O)(=O)N(C)c1ccc(C(=O)N[C@@H]2CCc3cc(Cl)ccc32)cc1` [Compound II-13], for which the IC50 was not above 1000 nM. Consider `O=C(N[C@@H]1CCc2cc(Cl)ccc21)c1ccc(S(=O)(=O)C(F)F)cc1` [Compound II-42], for which the IC50 is not above 1000 nM. In the case of `CO[C@H]1CCN(S(=O)(=O)c2ccc(C(=O)N[C@@H]3CCc4cc(Cl)ccc43)s2)C1` [Compound I-43], the half-inhibitory concentration (IC50) is not above 1000 nM. With `Cn1cc(S(N)(=O)=O)cc1C(=O)N[C@@H]1CCc2cc(Cl)ccc21` [Compound I-7], the IC50 was not below 20000 nM. On to `CS(=O)(=O)c1ccc(C(=O)N[C@@H]2CCc3cc(Cl)ccc32)cc1` [Compound II-22], for which the IC50 is not above 1000 nM. On to `NC(=O)c1ccc(C(=O)N[C@@H]2CCc3cc(Cl)ccc32)s1` [Compound I-20], for which the half-inhibitory concentration (IC50) was not above 1000 nM.
